{"source": "patent US11401264B2", "about": "“Heterocyclic compound” (Orizuru Therapeutics, Inc., priority 2018, dated 2022)", "key": {"[1]": {"test_system": "cardiomyocytes (embryoid bodies) from double knock-in human iPS cell lines (mCherry at TNNI3 locus)", "experiment": "Experimental Example 2: mCherry expression in TNNI1+ cells by flow cytometry", "format": "cell-based", "details": "3 μM, 8th-16th day, DMSO control 7.8", "method": "(§1) For detection of cardiomyocyte maturation, double knock-in human iPS cell lines, in which reporter protein sequences, EmGFP (Sequence Number 1) and mCherry (Sequence Number 2) were inserted into gene loci for TNNI1 and TNNI3, respectively, were prepared (the human iPS cells were prepared from episomal vector (loaded gene; OCT3/4, KLF4, SOX2, L-MYC, LIN28, mouse p53DD) using PBMC (LP_167, Sample ID: 20130318) purchased from CTL (reference literature; Okita K, et al. Stem Cells. 2012 Nov. 29. doi: 10.1002/stem.1293)).\n(§2) The maintenance culture of the above-mentioned reporter iPS cell lines was carried out by a conventional method (Okita K, et al. Stem Cells. 2012 Nov. 29. doi: 10.1002/stem.1293).\nFor differentiation induction into cardiomyocytes, the reporter iPS cell lines were treated with 0.5×TrypLE select (Life Technologies, diluted in 1/2 with 0.5 mM EDTA/PBS) for 4 to 5 minutes, and the cells were exfoliated using a cell scraper (IWAKI), and then dissociated into the single cell by pipetting. The medium was removed by centrifugation (1,000 rpm, 5 min), and the obtained cells were suspended in a medium prepared by adding 1% L-glutamine, transferrin 150 μg/mL, ascorbic acid 50 μg/mL (Sigma), monothioglycerol […], 10 μM Rock inhibitor (Y-27632), 2 ng/mL BMP4 (R&D) and 0.5% Matrigel (Growth Factor Reduced) to StemPro-34 SFM (ThermoFisher) in a 6 well-plate by 2×10^6 cells/1.5 mL/well, and then subjected to static culture at 37° C., under 5% oxygen condition to form embryoid bodies (0 day).\nNext day (1st day), a medium prepared by adding 1% L-glutamine, transferrin 150 μg/mL, ascorbic acid 50 μg/mL (Sigma), monothioglycerol 4><10^−4 M, 1.8 μL (concentration 12 ng/mL) of 10 μg/mL activin A, […] (concentration 10 ng/mL) of 10 μg/mL bFGF and 2.7 μL (concentration 18 ng/mL) of 10 μg/mL BMP4 to 1.5 mL of StemPro-34 SFM (ThermoFisher) was added to each well of the 6 well plate containing the embryoid bodies to adjust the volume combined with the 0 day's medium to final 3 mL (activin A: 6 ng/ml, bFGF: 5 ng/ml, BMP4: 10 ng/ml), and the embryoid bodies were cultured at 37° C. for additional 2 days, under 5% oxygen condition.\nThen (3rd day), the 6 well plate containing the embryoid bodies was inclined, and then left to stand for 1 to 2 minutes until the embryoid bodies were precipitated at the edges of the wells, and the supernatant was aspirated so as not to suck the embryoid bodies. Then, IMDM (ThermoFisher) medium was added to each well, and, as above, the plate was inclined, and then left to stand for 1 to 2 minutes, and the supernatant was aspirated so as not to suck the embryoid bodies. A medium prepared by adding 1% L-glutamine, transferrin 150 μg/mL, ascorbic acid 50 μg/mL (Sigma), monothioglycerol 4×10^−4 M, 10 ng/mL VEGF, 1 μM IWP-3, 0.6 μM dorsomorphin and 5.4 μM SB431542 to 3 mL of StemPro-34 SFM (ThermoFisher) was added to each well of the 6 well plate, and then the embryoid bodies were cultured at 37° C. for 3 days, under 5% oxygen condition.\nThen (6th day), the 6 well plate containing the embryoid bodies was inclined, and then left to stand for 1 to 2 minutes until the embryoid bodies were precipitated at the edges of the wells, and the supernatant was aspirated so as not to suck the embryoid bodies. […]"}, "[2]": {"test_system": "cardiomyocytes (embryoid bodies) from double knock-in human iPS cell lines (mCherry at TNNI3 locus)", "experiment": "Experimental Example 3: mCherry expression in TNNI1+ cells by flow cytometry, Example 8 with Compound A", "format": "cell-based", "details": "DMSO control 10.2", "method": "as §1, §2\nFor differentiation induction into cardiomyocytes, the reporter iPS cell lines were treated with 0.5×TrypLE select (Life Technologies, diluted in 1/2 with 0.5 mM EDTA/PBS) for 4 to 5 minutes, and the cells were exfoliated using a cell scraper (IWAKI), and then dissociated into the single cell by pipetting. […]"}}, "data": [{"smiles": "O=C1c2ccc(N3CCOCC3)cc2CN1c1ccc2[nH]c(-c3ccc(Br)cc3)nc2c1", "note": "[Example 8, 2-(2-(4-bromophenyl)-1H-benzimidazol-5-yl)-5-(morpholin-4-yl)isoindolin-1-one]", "values": [{"measurement": "mCherry+ (%)", "setting": "[1]", "result": 61.0, "unit": "%"}, {"measurement": "mCherry+ (%)", "setting": "[2]; Example 8 3 μM 8-9th days, then compound A 40 nM 10-15th days", "result": 64.3, "unit": "%"}, {"measurement": "mCherry+ (%)", "setting": "[2]; Example 8 3 μM 8-9 days, then Example 8 3 μM + Compound A 40 nM 10-15th days", "result": 85.1, "unit": "%"}]}]}
